Laboratory results as given in the supplement of paper PMC10331698.
± gives the standard deviation of the averaged measurements.

Assays:
Experiment in all cases: level (log10 ratio to DMSO vehicle control); higher = higher biomarker level / cell amount than vehicle control
[1] = compound: C=C(C)C(=O)OCCC(F)(F)C(F)(F)C(F)(F)C(F)(F)C(F)(F)C(F)(F)C(F)(F)C(F)(F)F [8:2 Fluorotelomer methacrylate] (in DMSO)
Experimental: (§1)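 BioMAP Diversity Plus panel of 12 human primary cell co-culture systems (3C, 4H, LPS, SAg, BT, BF4T, BE3C, CASM3C, HDF3CGF, KF3CT, MyoF, Mphg). Compounds were added 1 h before stimulation and left for 24 h (MyoF 48 h; BT 72 h for soluble read-outs or 6 d for IgG). Biomarkers were read by ELISA, cytotoxicity by SRB, PBMC viability and proliferation by Alamar Blue. Each well value was divided by the mean of 8 DMSO control wells on the same plate and log10 transformed; duplicate blinded samples were tested at 4 concentrations.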

[2] = compound: CN(C(=O)C(F)(F)C(F)(F)C(F)(F)F)[Si](C)(C)C [N-Methyl-N-trimethylsilylheptafluorobutyramide] (in DMSO)
Experimental: as §1

[3] = compound: O=C(O)C=C(C(F)(F)F)C(F)(F)F [3,3-Bis(trifluoromethyl)-2-propenoic acid] (in DMSO)
Experimental: as §1

[4] = compound: O=S(=O)(O)C(F)(F)C(F)(F)C(F)(F)C(F)(F)C(F)(F)C(F)(F)C(F)(F)F [Perfluoroheptanesulfonic acid] (in DMSO)
Experimental: as §1

[5] = compound: OCC(F)(F)OC(F)(F)C(F)(F)OC(F)(F)C(F)(F)OC(F)(F)CO [1H,1H,11H,11H-Perfluorotetraethylene glycol] (in DMSO)
Experimental: as §1

[6] = compound: OCCC(F)(F)C(F)(F)C(F)(F)C(F)(F)F [4:2 Fluorotelomer alcohol] (in DMSO)
Experimental: as §1

| Test System | level (log10) ([1]; 6700 nM) | level (log10) ([1]; 20000 nM) | level (log10) ([2]; 6700 nM) | level (log10) ([2]; 20000 nM) | level (log10) ([2]; 60000 nM) | level (log10) ([3]; 6700 nM) | level (log10) ([3]; 20000 nM) | level (log10) ([3]; 60000 nM) | level (log10) ([4]; 1500 nM) | level (log10) ([4]; 4400 nM) | level (log10) ([4]; 13000 nM) | level (log10) ([4]; 40000 nM) | level (log10) ([5]; 6700 nM) | level (log10) ([5]; 20000 nM) | level (log10) ([5]; 60000 nM) | level (log10) ([6]; 6700 nM) | level (log10) ([6]; 20000 nM) | level (log10) ([6]; 60000 nM) |
| --- | --- | --- | --- | --- | --- | --- | --- | --- | --- | --- | --- | --- | --- | --- | --- | --- | --- | --- |
| BF4T:PAI-I | -0.0075 ± 0.0092 | 0.0055 ± 0.012 | 0.0055 ± 0.04 | -0.007 ± 0.017 | 0.0025 ± 0.0064 | 0.0055 ± 0.0021 | 0.001 ± 0.0042 | -0.0055 ± 0.021 | 0.0205 ± 0.00071 | 0.01 | -0.0225 ± 0.011 | -0.0075 ± 0.025 | -0.0035 ± 0.0092 | -0.0335 ± 0.00071 | -0.069 ± 0.016 | -0.0075 ± 0.023 | 0.0005 ± 0.035 | 0.0005 ± 0.00071 |
| BF4T:CD106/VCAM-1 | -0.0225 ± 0.00071 | -0.0495 ± 0.022 | 0.0095 ± 0.025 | 0.0315 ± 0.015 | 0.0035 ± 0.026 | -0.0755 ± 0.0064 | -0.0945 ± 0.005 | -0.047 ± 0.067 | 0.017 ± 0.024 | 0.001 ± 0.0042 | -0.0765 ± 0.0064 | -0.094 ± 0.0099 | 0.0765 ± 0.0092 | -0.018 ± 0.037 | -0.0835 ± 0.043 | -0.049 ± 0.083 | 0.022 ± 0.062 | 0.0485 ± 0.083 |
| BE3C:CXCL11/I-TAC | 0.0215 ± 0.053 | 0.025 ± 0.078 | -0.01 ± 0.0071 | 0.003 ± 0.014 | 0.012 ± 0.031 | -0.0375 ± 0.0092 | -0.033 ± 0.023 | -0.019 ± 0.011 | -0.0095 ± 0.069 | 0.021 ± 0.038 | 0.0255 ± 0.011 | 0.0495 ± 0.025 | -0.0135 ± 0.0021 | -0.03 ± 0.0028 | -0.092 ± 0.028 | 0.004 ± 0.0014 | 0.0075 ± 0.0078 | 0.0155 ± 0.012 |
| LPS:CD40 | 0.0345 ± 0.0092 | -0.028 ± 0.11 | -0.023 ± 0.027 | -0.0065 ± 0.011 | -0.0325 ± 0.025 | -0.055 ± 0.024 | -0.061 ± 0.047 | -0.184 | 0.035 ± 0.075 | 0.029 ± 0.096 | 0.0625 ± 0.1 | 0.001 ± 0.14 | -0.0565 ± 0.026 | -0.058 ± 0.054 | -0.126 ± 0.035 | -0.008 ± 0.016 | -0.041 ± 0.014 | -0.032 |
| BF4T:IL-1alpha | -0.009 ± 0.0057 | 0.008 ± 0.016 | -0.015 ± 0.016 | -0.0135 ± 0.016 | 0.015 ± 0.042 | -0.009 ± 0.0057 | -0.003 ± 0.0085 | -0.0065 ± 0.035 | 0.0205 ± 0.025 | 0.0055 ± 0.005 | 0.01 ± 0.0014 | 0.0205 ± 0.016 | 0.0095 ± 0.012 | -0.002 ± 0.025 | 0.003 ± 0.051 | -0.0245 ± 0.028 | 0.004 ± 0.0028 | 0.0055 ± 0.016 |
| BF4T:Keratin 8/18 | -0.019 ± 0.0028 | 0.0115 ± 0.016 | -0.0105 ± 0.052 | 0.0115 ± 0.03 | 0.013 ± 0.017 | -0.012 ± 0.0085 | -0.012 ± 0.0028 | 0.007 ± 0.014 | 0.009 ± 0.025 | -0.012 ± 0.013 | -0.027 ± 0.0014 | 0.0125 ± 0.015 | -0.0025 ± 0.012 | -0.005 ± 0.0057 | -0.0335 ± 0.015 | -0.026 ± 0.021 | -0.0185 ± 0.039 | 0.017 ± 0.0028 |
| BT:sTNF-alpha | -0.031 ± 0.055 | -0.049 ± 0.0042 | -0.014 ± 0.062 | -0.0875 ± 0.054 | 0.079 ± 0.13 | -0.047 ± 0.034 | -0.184 ± 0.04 | -0.637 ± 0.093 | -0.022 ± 0.018 | -0.043 ± 0.0042 | -0.048 ± 0.014 | -0.101 ± 0.0099 | 0.0045 ± 0.066 | -0.033 ± 0.09 | -0.234 ± 0.044 | 0.126 ± 0.061 | 0.0895 ± 0.077 | 0.143 ± 0.14 |
| SAg:CD40 | -0.0265 ± 0.035 | -0.0335 ± 0.0078 | -0.0185 ± 0.059 | -0.009 ± 0.0042 | -0.0075 ± 0.00071 | 0.0205 ± 0.005 | -0.01 ± 0.017 | -0.094 ± 0.038 | -0.0375 ± 0.023 | -0.0165 ± 0.012 | -0.009 ± 0.016 | -0.049 ± 0.014 | 0.011 ± 0.03 | -0.035 ± 0.044 | -0.132 ± 0.043 | -0.028 ± 0.059 | -0.036 ± 0.037 | -0.006 ± 0.068 |
